Data set [1] can be described thus: solubility in water or saline solution. Type of data set: physicochemical. Conditions: for strontium ferrate water or saline solution.
Data set [2] has as its system mammalian blood. As to conditions: dry powder on blood; cited from earlier work.
The conditions of data set [3]: cited from earlier work.

In the case of `[O]=[Fe][O][Fe]=[O]` [Ferric oxide], the “solubility in water” value in data set [1] is listed as “insoluble”.

Take `[Fe+4].[O-2].[O-2].[O-2].[O-2].[Sr+2].[Sr+2]` [Strontium ferrate, strontium ferrate]: in data set [1], the “solubility in water” value is given as “very insoluble”.

On to `[O-2].[Sr+2]` [Strontium oxide], for which the “hemostasis (background)” value in data set [2] is reported as “some hemostasis”. As for `OO.[Zn]` [Zinc peroxide (ZnO2), Zinc peroxide], the “hemostasis (background)” value in data set [2] is reported as “some hemostatic activity”. Consider `[Ba+2].[O]=[Fe](=[O])([O-])[O-]` [barium ferrate (BaFeO4), barium ferrate], for which the “solubility in water (background)” value in data set [3] is “practically insoluble”.

On to “strontium ferrate [strontium ferrate (SrFeO4)]”, for which the “solubility in water (background)” value in data set [3] is given as “practically insoluble”.
